Data set [1] in a line: Single dose PK study in rats (plasma concentration). Type of data set: in vivo. The settings on record: Sprague Dawley rats, single i.v. 10, 75 and 150 μg/kg. Here is the method:
Following administration, blood was collected at days 1-7 post administration (with multiple samples collected over the first 24 hours following administration). […]

The test system of a further data set is YAC-1 cells. Type of data set: cell-based. Here is the method:
NK cell-mediated cytotoxicity against target tumor cells was evaluated in vitro using a flow cytometry-based assay. NK cells were isolated from spleens of Balb/c mice using negative-selection magnetic cell isolation (Mouse NK cell enrichment kit, Stemcell Technologies) and used as effector cells. For in vitro studies, isolated NK cells were stimulated with Conjugate 1 at concentrations of 3000, 1000, 300, 30, 3, or 0 (unstimulated) ng/ml overnight in a humidified incubator at 37° C., 5% CO2 prior to use in the cytotoxicity assay. For in vivo studies, mice were dosed with 0.3 mg/kg Conjugate 1, and splenic NK cells were isolated 24, 48, and 72 h post-dose and used directly in the cytotoxicity assay.
YAC-1 T-cells labeled with PKH26 were used as target cells. To monitor NK cell cytotoxicity, NK and YAC-1 cells were co-cultured at various effector: target ratios (50:1, 25:1, and 12.5:1) for 4 hours at 37° C., 5% CO2, then stained with 7-AAD for 10 min to label dead cells. Cells were immediately analyzed using flow cytometry. Lysed target cells were identified as PKH26+7-AAD+.
Balb/c mice (n=2/group) were treated with Conjugate 1 (0.006, 0.03 or 0.3 mg/kg), IL-15 (1 mg/kg) or vehicle control. After treatment, spleens were isolated 24, 72, and 96 hours for NK cell isolation. […]

In another data set the test system is CD4, CD8, and NK cells. As to the kind of experiment: In vivo IL-15 signaling (STAT5 phosphorylation in lymphocytes) in non-human primates. As to conditions: NHP. Further details: species or system cynomolgus monkeys. The method, then: In the study, cynomolgus monkeys (cyno), one female and one male, were each intravenously administered a single dose of Conjugate 2 (0.5 mg/kg). A series of blood samples were taken from each animal both prior to treatment (day-6 and-1) and at multiple intervals following treatment for assessment by flow cytometry of STAT5 phosphorylation in various types of lymphocytes (CD4, CD8, and NK cells). Results are provided in FIGS. 9A (CD4), 9B (CD8), and 9C (NK).
Cynomolgus monkeys (n=3-4 males), were administered a single intravenous injection of Conjugate 1 at 0.003, 0.01, 0.1 mg/kg or a vehicle control. Blood samples were collected at the indicated time points pre and post dose (−5, −2, 1, 2, 3, 4, 5, 6, 7, 10, 14, 17 days) and subjected to flow cytometric analysis to examine pharmacodynamic effects within lymphocyte populations. Proliferation (% Ki-67) and JAK/STAT signaling (% pSTAT5) for NK cells, CD8 T cells, and CD4 T cells were examined, with the results shown in FIGS. 45A-C and FIGS. 46A-C, respectively.

Data set [2] in a line: PK (MRT) of long-acting IL-15 receptor agonists (Table 2B). Type of data set: in vivo. As to conditions: species not stated.
The test system of the next data set is CT-26 cells. Briefly: CT-26 lung metastasis model. As to conditions: for lung nodule inhibition: Example 19, one week apart.

Procedure for CT-26 cells: At day 0, 6-8 week-old female Balb/c mice were inoculated with 1×10^5 mouse CT-26 cells by tail vein injection. On day 1, post 24 h of CT-26 cells being administered, mice were divided into ten groups. […] Each group was assigned one intervention as follows: vehicle, phosphate buffered saline (Group A); native IL-15 alone (Group B); Conjugate 2 at a dose of 0.03 mg/kg (Group C); Conjugate 2 at a dose of 0.1 mg/kg (Group D); Conjugate 2 at a dose of 0.3 mg/kg (Group E); Conjugate 2 at a dose of 1.0 mg/kg (Group F); Conjugate 2 at a dose of 3.0 mg/kg (Group G); for Conjugate 1: vehicle, phosphate buffered saline (Group H); Conjugate 1 at a dose of 0.03 mg/kg (Group I) and Conjugate 1 at a dose of 0.3 mg/kg (Group J). Animals were dosed at days 1, 5, and 10.
Post 13 days from the date of CT-26 tumor cells administration, mice were anesthetized, and blood and spleen cells were collected for further analysis of immunophenotype markers, while lungs were fixed for 24-48 h in Bouins solution containing picric acid and formaldehyde.
The number of lung tumor nodules were counted under a dissection per each lung and mean of lung nodules for each group was determined. The statistical significance was also obtained between the vehicle group vs intervention groups using unpaired students t test.
Balb/c mice received tail vein injection of 1×10^5 CT-26 colorectal carcinoma cells. The following day, mice (n=9/group) were treated weekly, twice, with Conjugate 1 (0.03 or 0.3 mg/kg) or vehicle control. Five days after the second injection, mice were humanely sacrificed and lung nodules were counted.
CT-26 mice (n=7-11/group) were injected with anti-asialo GM1 to deplete NK cells or two different controls (lgG or PBS), then injected with 1×10^5 CT-26 tumor cells. Mice were then treated with Conjugate 2 at 0.3 mg/kg dosed on days 1, 5 and 10 post tumor cell injection or vehicle control. Mice were sacrificed and lung nodules were counted three days after the last day of treatment.

Regarding mono-mPEG-SBA40K-IL-15 [Conjugate 1], the half-life result in data set [1] was “approximately 18 hours”. Besides, the “NK cytotoxicity (percent specific lysis of YAC-1 cells) after treatment of mice” value in the data set on YAC-1 cells was “elevation of NK cytotoxicity superior in magnitude and duration”. For the same substance, the “pSTAT5 in CD8 T cells” value with CD4, CD8, and NK cells (0.1 and 0.01 mg/kg) is listed as “dose-dependent increase in pSTAT5”. Further, the “dose level at which increase in % pSTAT5 in NK cells can be detected” value with CD4, CD8, and NK cells (single i.v.) was 0.001 mg/kg. Also, the “PK (MRT)” value in data set [2] is 21 h. In the data set with CT-26 cells (0.3 mg/kg, followed 32 days post tumor cell injection, vs vehicle), the survival result is “increased survival significantly”. Also, the “reduction in lung metastases in comparison to vehicle” value in the data set with CT-26 cells (Example 13, i.v. days 1, 5, 10, dose not stated) came out at 85%. The lung nodule inhibition in the data set on CT-26 cells (0.03 mg/kg dosed twice) stood at 40%; with CT-26 cells (0.3 mg/kg dosed twice), 80%.

The values above are taken from patent publication US20240424115A1, “LONG-ACTING INTERLEUKIN-15 RECEPTOR AGONISTS AND RELATED IMMUNOTHERAPEUTIC COMPOSITIONS AND METHODS” (Nektar Therapeutics, priority 2017, published 2024).
